This note sets out measurements from patent publication US20060167106A1, “Compounds acting at the centrosome” (priority 2004, published 2006).

The test system of this assay is bovine brain microtubule-associated protein (MAP)-rich tubulin. The experiment in a line: MAP-Rich Tubulin Polymerization Assay. In kind it is biochemical. Particulars: 0.5 μM Compound 1 alone or with 3 μM Taxol. On the procedure:
In vitro tubulin polymerization assays were repeated in the presence of microtubule-associated proteins (MAPs). Lyophilized bovine brain microtubule-associated protein (MAP)-rich tubulin and PEM buffer (80 mM Na-PIPES (pH 6.9), 1 mM MgCl2, 1 mM EGTA) were purchased from Cytoskeleton (Denver, Colo.). […] Absorbance at 340 nm was measured every minute for 60 minutes at 37° C. using a Perkin Elmer HTS 7000 spectrophotometer.

Take `CN(NC(=O)CC(=O)NN(C)C(=S)c1ccccc1)C(=S)c1ccccc1` [Compound 1]: the “influence on MAP-enriched tubulin polymerization” value is listed as “does not influence MAP-enriched tubulin polymerization”.
